Consider 5 compounds from EPA's ToxRefDB 2.

The subject of data set [1] is rabbit. The conditions noted are these: Prenatal developmental toxicity study, new zealand white, Oral, Gavage/Intubation, dose end: 18 GD.
For data set [2], the system named is rat. The conditions noted are these: Prenatal developmental toxicity study, sprague dawley, Oral, Gavage/Intubation, dose end: 15 GD.
In data set [3] the test system is rat. The conditions noted are these: Prenatal developmental toxicity study, sprague dawley, Inhalation, Whole-Body, dose end: 15 GD.
Data set [4] relates to rat. As to conditions: Prenatal developmental toxicity study, sprague dawley, Inhalation, Whole-Body, dose end: 15 GD. This is another data set of the same source.
In data set [5] the test system is rabbit. As to conditions: Prenatal developmental toxicity study, new zealand white, Inhalation, Whole-Body, dose end: 18 GD.
The test system of data set [6] is rabbit. As to conditions: Prenatal developmental toxicity study, dutch, Inhalation, Whole-Body, dose end: 18 GD.
Data set [7] has as its system rat. As to conditions: Prenatal developmental toxicity study, fischer, Inhalation, Whole-Body, dose end: 15 GD.
Data set [8] has as its system rat. As to conditions: Combined chronic toxicity/carcinogenicity, fischer, Oral, Feed, dose end: 2 year.
Data set [9] has as its system mouse. As to conditions: Prenatal developmental toxicity study, cd1, Oral, Gavage/Intubation, dose end: 17 GD.
Data set [10] concerns mouse. The conditions noted are these: Carcinogenicity, cd1, Oral, Feed, dose end: 90 week.
Data set [11] deals with rat. As to conditions: Combined chronic toxicity/carcinogenicity, fischer, Oral, Feed, dose end: 24 month.
For data set [12], the system named is dog. The conditions noted are these: Chronic toxicity, beagle, Oral, Feed, dose end: 52 week.
[13] abbreviates: group: developmental, developmental / developmental malformation / bone / full supernumerary.
[14] abbreviates: group: maternal, systemic / in life observation / body weight / body weight gain + systemic / in life observation / food consumption / food consumption.
Where [15] appears, read: group: maternal, systemic / in life observation / body weight / body weight gain + systemic / in life observation / food consumption / food consumption + ….
The mark [16] stands for this setting: group: developmental, developmental / developmental malformation / bone / bent + developmental / developmental malformation / bone / full supernumerary + ….
Where [17] appears, read: group: maternal, systemic / in life observation / body weight / body weight gain.
[18] abbreviates: group: maternal, systemic / in life observation / body weight / body weight gain + systemic / in life observation / clinical signs / urine staining - ….
[19] abbreviates: group: developmental, developmental / developmental malformation / bone / [other] + developmental / developmental malformation / bone / fused + developmental / ….
The mark [20] stands for this setting: group: developmental, developmental / developmental malformation / bone / [other] + developmental / developmental malformation / heart / [other] + systemic / in ….
Setting [21] is: group: maternal, reproductive / reproductive performance / resorptions / resorptions.
Where [22] appears, read: group: developmental, developmental / developmental malformation / bone / wavy + developmental / developmental malformation / general / [other] + developmental / ….
Setting [23] is: group: developmental, developmental / developmental malformation / general / [other] + systemic / in life observation / body weight / fetal weight.
Where [24] appears, read: group: developmental, developmental / developmental malformation / bone / [other] + developmental / developmental malformation / bone / absent + developmental / ….
Setting [25] is: group: maternal, reproductive / reproductive performance / estrous cycle / corpora lutea + reproductive / reproductive performance / implantations / ….
The mark [26] stands for this setting: group: developmental, developmental / developmental malformation / bone / delayed ossification + developmental / developmental malformation / bone / misaligned + ….
Setting [27] is: group: maternal, reproductive / reproductive performance / postimplantation loss / postimplantation loss + systemic / hematology / hemoglobin (hgb) / ….
Setting [28] is: group: developmental, developmental / developmental malformation / bone / [other] + developmental / developmental malformation / bone / bipartite ossification + ….
Where [29] appears, read: group: developmental, developmental / developmental malformation / bone / incomplete ossification + developmental / developmental malformation / bone / unossified.
Setting [30] is: group: maternal, reproductive / reproductive performance / implantations / implantations + systemic / hematology / erythrocyte (rbc) count differential / ….
Setting [31] is: group: maternal, systemic / organ weight / liver / absolute.
The mark [32] stands for this setting: group: cholinesterase, cholinesterase / cholinesterase / cholinesterase / erythrocyte cholinesterase (che).
[33] abbreviates: group: systemic, systemic / pathology microscopic / stomach / mineralization + systemic / in life observation / body weight / body weight + systemic / in ….
Where [34] appears, read: group: developmental, systemic / in life observation / body weight / fetal weight.
Setting [35] is: group: maternal, reproductive / reproductive performance / postimplantation loss / postimplantation loss + systemic / in life observation / body weight / ….
Where [36] appears, read: group: cholinesterase, cholinesterase / cholinesterase / cholinesterase / brain cholinesterase (che) + cholinesterase / cholinesterase / cholinesterase / ….
Where [37] appears, read: group: systemic, systemic / hematology / mean corpuscular (cell) volume (mcv) / mean corpuscular (cell) volume (mcv) + systemic / hematology / mean ….
The mark [38] stands for this setting: group: cholinesterase, cholinesterase / cholinesterase / cholinesterase / plasma cholinesterase (che).
[39] abbreviates: group: systemic, systemic / clinical chemistry / alanine aminotransferase (alt/sgpt) / alanine aminotransferase (alt/sgpt) + systemic / clinical chemistry / ….
The mark [40] stands for this setting: group: cholinesterase, cholinesterase / cholinesterase / cholinesterase / plasma cholinesterase (che) + cholinesterase / cholinesterase / cholinesterase / ….
Where [41] appears, read: group: systemic, systemic / hematology / erythrocyte (rbc) count differential / erythrocyte (rbc) + systemic / hematology / hematocrit (hct) / hematocrit (….

For the compound `O=C(O)COc1ccc(Cl)cc1Cl.OCCNCCO` [2,4-Dichlorophenoxyacetic acid diethanolamine], the LEL came to 60 mg/kg/day in data set [1] (setting [13]), 30 mg/kg/day in [1] (setting [14]), 75 mg/kg/day in data set [2] (setting [16]) and 75 mg/kg/day in data set [2] (setting [17]). For the same compound, the LOAEL in data set [1] (setting [13]) was > 60 mg/kg/day; in [1] (setting [14]), 30 mg/kg/day; in data set [2] (setting [16]), 75 mg/kg/day; in data set [2] (setting [17]), 75 mg/kg/day. Moreover, the NEL was determined as 30 mg/kg/day in data set [1] (setting [13]), 15 mg/kg/day in [1] (setting [15]), 15 mg/kg/day in data set [2] (setting [16]) and 15 mg/kg/day in [2] (setting [18]). Besides, the NOAEL is ≥ 60 mg/kg/day in data set [1] (setting [13]), 15 mg/kg/day in data set [1] (setting [15]), 15 mg/kg/day in [2] (setting [16]) and 15 mg/kg/day in [2] (setting [18]).

In the case of `CCOCCOC(C)=O` [2-Ethoxyethyl acetate], the LOAEL was > 600 mg/kg/day in data set [3] (setting [19]); > 600 mg/kg/day in data set [3] (setting [21]); > 600 ppm in data set [4] (setting [22]); > 600 ppm in data set [4] (setting [21]); > 300 ppm in [5] (setting [24]); > 300 ppm in data set [5] (setting [25]). Moreover, the LOAEL in data set [6] (setting [26]) is > 400 ppm; in data set [6] (setting [27]), > 400 ppm; in [7] (setting [28]), > 300 ppm; in [7] (setting [30]), > 300 ppm. Also, the NOAEL was ≥ 600 mg/kg/day in data set [3] (setting [19]); ≥ 600 mg/kg/day in data set [3] (setting [21]); ≥ 600 ppm in [4] (setting [22]); ≥ 600 ppm in data set [4] (setting [21]); ≥ 300 ppm in [5] (setting [24]); ≥ 300 ppm in [5] (setting [25]). Further, the NOAEL is ≥ 400 ppm in data set [6] (setting [26]), ≥ 400 ppm in [6] (setting [27]), ≥ 300 ppm in data set [7] (setting [28]) and ≥ 300 ppm in [7] (setting [30]). The LEL in [3] (setting [20]) was found to be 130 mg/kg/day; in data set [3] (setting [21]), 390 mg/kg/day; in data set [4] (setting [23]), 130 ppm; in [4] (setting [21]), 390 ppm; in data set [5] (group: developmental, developmental / developmental malformation / bone / incomplete ossification + developmental / developmental malformation / bone / misshapen…), 100 ppm; in data set [5] (group: maternal, systemic / hematology / platelet / platelet + systemic / in life observation / body weight / body weight gain + systemic / in life …) it was 100 ppm. For the same compound, the LEL in [6] (group: developmental, developmental / developmental malformation / bone / delayed ossification + developmental / developmental malformation / spleen / pale + …) was found to be 100 ppm; in data set [6] (setting [27]), 400 ppm; in data set [7] (setting [29]) it was 50 ppm; in data set [7] (setting [31]), 50 ppm. Further, the NEL was < 130 mg/kg/day in data set [3] (setting [20]); 130 mg/kg/day in data set [3] (setting [21]); < 130 ppm in data set [4] (setting [23]); 130 ppm in data set [4] (setting [21]); 50 ppm in data set [5] (setting [24]); 50 ppm in data set [5] (setting [25]). Moreover, the NEL was 25 ppm in data set [6] (setting [26]), 100 ppm in data set [6] (setting [27]), < 50 ppm in data set [7] (setting [29]) and < 50 ppm in data set [7] (setting [31]).

As to `CCOC(=O)CC(SP(=O)(OC)OC)C(=O)OCC` (stereo unspecified) [Malaoxon], in data set [8] (setting [32]), the LEL was found to be 1 mg/kg/day, the LOAEL was found to be 1 mg/kg/day, the NEL was < 1 mg/kg/day and the NOAEL was < 1 mg/kg/day. Also, the LOAEL in data set [8] (group: systemic, systemic / pathology microscopic / stomach / mineralization) came out at 57 mg/kg/day. For the same compound, in data set [8] (setting [33]), the NEL worked out at 1 mg/kg/day and the NOAEL came out at 1 mg/kg/day. Moreover, the LEL in data set [8] (group: systemic, systemic / pathology microscopic / stomach / mineralization + systemic / in life observation / food consumption / food consumption) worked out at 57 mg/kg/day.

As for `C=C(C)C(N)=O` [Methacrylamide], in data set [9] (setting [34]), the LEL turned out to be 120 mg/kg/day, the LOAEL was > 180 mg/kg/day, the NEL was 60 mg/kg/day and the NOAEL was ≥ 180 mg/kg/day. For the same compound, in [9] (setting [35]), the LOAEL is > 180 mg/kg/day, the NEL stood at 60 mg/kg/day and the NOAEL was ≥ 180 mg/kg/day. In [9] (group: maternal, systemic / organ weight / liver / relative to body weight), this compound displayed an LEL of 120 mg/kg/day.

Regarding `CCCCSP(=O)(SCCCC)SCCCC` [Tribufos], the LEL stood at 1.64 mg/kg/day in data set [10] (setting [36]); 1.64 mg/kg/day in data set [10] (setting [37]); 0.2 mg/kg/day in data set [11] (setting [38]); 1.8 mg/kg/day in data set [11] (setting [39]); 0.4 mg/kg/day in [12] (setting [38]); 1.7 mg/kg/day in [12] (setting [41]). For the same compound, the LOAEL is 1.64 mg/kg/day in data set [10] (setting [36]); 1.64 mg/kg/day in [10] (setting [37]); 0.2 mg/kg/day in data set [11] (setting [38]); > 16.8 mg/kg/day in [11] (setting [39]); 0.4 mg/kg/day in [12] (setting [38]); 1.7 mg/kg/day in data set [12] (group: systemic, systemic / hematology / erythrocyte (rbc) count differential / erythrocyte (rbc)). Also, the NEL in [10] (setting [36]) was < 1.64 mg/kg/day; in data set [10] (setting [37]), < 1.64 mg/kg/day; in [11] (setting [38]) it was < 0.2 mg/kg/day; in [11] (setting [39]) it was 0.2 mg/kg/day; in data set [12] (setting [40]), 0.1 mg/kg/day; in data set [12] (setting [41]), 0.4 mg/kg/day. Further, the NOAEL in [10] (setting [36]) was < 1.64 mg/kg/day; in [10] (setting [37]), < 1.64 mg/kg/day; in [11] (setting [38]) it was < 0.2 mg/kg/day; in data set [11] (setting [39]), ≥ 16.8 mg/kg/day; in [12] (setting [40]), 0.1 mg/kg/day; in data set [12] (setting [41]) it was 0.4 mg/kg/day.

A word on the LOAEL: it is the lowest dose or exposure tested at which an adverse effect was seen. One may read the NOAEL as the highest tested level that showed no adverse finding.
